Patent US11993591B2, “Chromen-4-one derivatives for the treatment and prophylaxis of hepatitis B virus disease” (Hoffmann-La Roche Inc., priority 2018, dated 2024)

Test system: HBV cccDNA (HBeAg level) in HepDES19 cells
Assay: Engineered HepDES19 primary screen assay (HBeAg as surrogate marker for cccDNA)
Format: cell-based
Settings: Hepatitis B virus, HepDES19, 120 h
Description: The assay was employed to screen for novel cccDNA inhibitors. HepDES19 is a cccDNA-producing cell line. In this cell line, HBeAg in the cell culture supernatant as surrogate marker, as HBeAg production depends on cccDNA level and activity. HepDES19 is an engineered cell line which contains a 1.1 unit length HBV genome, and pgRNA transcription from the transgene is controlled by Tetracycline (Tet). In the absence of Tet, pgRNA transcription will be induced, but HBV e antigen (HBeAg) could not be produced from this pgRNA due to very short leader sequence before the HBeAg start codon and the start codon is disrupted. Only after cccDNA is formed, the missing leader sequence and start codon mutation would be restored from the 3′-terminal redundancy of pgRNA, and then HBeAg could be synthesized. Therefore, HBeAg could be used as a surrogate marker for cccDNA (Zhou, T. et al., Antiviral Res. (2006), 72(2), 116-124; Guo, H. et al., J. Virol. (2007), 81(22), 12472-12484).
HepDES19 cells were seeded at 2×10^6 cells per T150 flask and cultured with the culture medium (Dulbecco's Modified Eagle Medium: Nutrient Mixture F-12 [DMEM-F12, Gibco Cat. 11320-82], 10% Fetal Bovine Serum [FBS, Clontech Cat. 631101], 0.1 mM Non-Essential Amino Acids Solution [NEAA, Gibco Cat. 11140-050], 50 μg/mL Penicillin-Streptomycin [PS, Invitrogen Cat. 15140-163], 500 μg/mL Geneticin [G418, Invitrogen Cat. 10131-027]) containing 3 μg/mL Tet (Sigma, Cat. 87128) for 5 days. Cells were then seeded at 4×10^6 cells per T150 in the same culture medium as described above in the absence of Tet for 8 days. Cells were then harvested and frozen at density of 2×10^6 cells per mL. For compound testing, the frozen cells were thawed and seeded into 96-well plates at a density of 6×10^4 cells per well. At 24 hours after seeding, half log serial dilutions of compounds made with Dimethyl sulfoxide (DMSO, Sigma, Cat. D2650) were further diluted with the same culture medium as described above before they were added to the cells to reach desired final compound concentrations and 1% DMSO concentration. Plates were then incubated at 37° C. for another 5 days before measurement of HBeAg level and cell viability. Intracellular HBeAg level were measured with enzyme-linked immunosorbent assay (ELISA) kit (Shanghai Kehua Diagnostic Medical Products Co., Ltd). Cell viability was assessed using Cell Counting Kit-8 (Donjindo, Cat. CK04-20). IC50 values were derived from the dose-response curve using 4 parameter logistic curve fit method.
The compounds of the present invention were tested for their capacity to inhibit extracellular HBeAg level as described herein.

Work on `O=C(O)C1CC(OCCOc2ccc3c(c2)CCN(c2cc(=O)c4cccc(Cl)c4o2)C3=O)C1` (stereo not drawn) [Example 58, 3-(2-((2-(8-chloro-4-oxo-chromen-2-yl)-1-oxo-1,2,3,4-tetrahydroisoquinolin-6-yl)oxy)ethoxy)cyclobutanecarboxylic Acid] yielded an IC50 of 23.4 µM.

`COC(=O)c1ccc(NC(=O)c2cc(=O)c3cccc(Cl)c3o2)c(C)c1` [Example 27, Methyl 4-(8-chloro-4-oxo-chromene-2-carboxamido)-3-methylbenzoate] was tested, and the IC50 was 23.4 µM.

Work on `COC(=O)C1CC(OCCOc2ccc3c(c2)C(=O)N(c2cc(=O)c4cccc(Cl)c4o2)C3)C1` (stereo not drawn) [Example 54, Methyl 3-(2-((2-(8-chloro-4-oxo-chromen-2-yl)-3-oxoisoindolin-5-yl)oxy)ethoxy)cyclobutanecarboxylate] yielded an IC50 of 16 µM.

`CCOC(=O)c1nnc(NC(=O)c2cc(=O)c3cccc(Cl)c3o2)s1` [Example 35, Ethyl 5-(8-chloro-4-oxo-chromene-2-carboxamido)-1,3,4-thiadiazole-2-carboxylate] showed an IC50 of 44.6 µM.

With `COc1ccc2c(c1)C(=O)N(c1cc(=O)c3cccc(Cl)c3o1)C2` [Example 55, 2-(8-chloro-4-oxo-chromen-2-yl)-6-methoxyisoindolin-1-one] the IC50 was 16.7 µM.

In the case of `O=C(O)CCCOc1cc(Cl)ccc1NC(=O)c1cc(=O)c2cc(Cl)cc(Cl)c2o1` [Example 11, 4-(5-chloro-2-(6,8-dichloro-4-oxo-chromene-2-carboxamido)phenoxy)butanoic Acid], the IC50 is reported as 3.12 µM.

`Cc1cc(Cl)ccc1NC(=O)c1cc(=O)c2cccc(Cl)c2o1` [Example 8, 8-chloro-N-(4-chloro-2-methylphenyl)-4-oxo-chromene-2-carboxamide] gave an IC50 of 0.32 µM.

`COC(=O)c1cccc(N2CCN(c3cc(=O)c4cccc(Cl)c4o3)CC2)c1` [Example 53, Methyl 3-(4-(8-chloro-4-oxo-chromen-2-yl)piperazin-1-yl)benzoate] was tested, and the IC50 was 15 µM.

`O=c1cc(N2C3CCC2CC(O)C3)oc2c(Cl)cccc12` (stereo not drawn) [Example 51, 8-chloro-2-(3-hydroxy-8-azabicyclo[3.2.1]octan-8-yl)-chromen-4-one] gave an IC50 of 14.8 µM.

With `O=C(O)COCCOc1cc(Cl)ccc1NC(=O)c1cc(=O)c2cccc(Cl)c2o1` [Example 24, 2-(2-(5-chloro-2-(8-chloro-4-oxo-chromene-2-carboxamido)phenoxy)ethoxy)acetic Acid] the IC50 was 13.9 µM.

In the case of `COC(=O)c1ccc(C)c(NC(=O)c2cc(=O)c3cccc(Cl)c3o2)c1` [Example 21, Methyl 3-(8-chloro-4-oxo-chromene-2-carboxamido)-4-methylbenzoate], the IC50 is reported as 11 µM.

In the case of `COc1cc(Br)cnc1NC(=O)c1cc(=O)c2cccc(Cl)c2o1` [Example 32, N-(5-bromo-3-methoxypyridin-2-yl)-8-chloro-4-oxo-chromene-2-carboxamide], the IC50 is reported as 33.7 µM.

Work on `COc1ccc(CNc2cc(=O)c3cccc(Cl)c3o2)cc1` [Example 52, 8-chloro-2-((4-methoxybenzyl)amino)-chromen-4-one] yielded an IC50 of 15 µM.

`Cc1cc(O)ccc1NC(=O)c1cc(=O)c2cccc(Cl)c2o1` [Example 30, 8-chloro-N-(4-hydroxy-2-methylphenyl)-4-oxo-chromene-2-carboxamide] showed an IC50 of 25.9 µM.

`O=C(O)COCCOc1cc(Cl)ccc1NC(=O)c1cc(=O)c2cc(Cl)cc(Cl)c2o1` [Example 22, 2-(2-(5-chloro-2-(6,8-dichloro-4-oxo-chromene-2-carboxamido)phenoxy)ethoxy)acetic Acid] was tested, and the IC50 was 11.9 µM.

Compound `O=C(O)C1CC(OCCOc2ccc(C3CCN(c4cc(=O)c5cc(F)cc(Cl)c5o4)CC3)cc2)C1` (stereo not drawn) [Example 50, 3-(2-(4-(1-(8-chloro-6-fluoro-4-oxo-chromen-2-yl)piperidin-4-yl)phenoxy)ethoxy)cyclobutane-1-carboxylic Acid] has an IC50 of 14.1 µM.

In the case of `CC(C)(C)OC(=O)N1CC2(C1)CN(c1cc(=O)c3cccc(Cl)c3o1)C2` [Example 62, Tert-butyl 6-(8-chloro-4-oxo-chromen-2-yl)-2,6-diazaspiro[3.3]heptane-2-carboxylate], the IC50 is reported as 33.2 µM.

Work on `COc1ccc2c(c1)CN(c1cc(=O)c3cccc(Cl)c3o1)C2=O` [Example 43, 2-(8-chloro-4-oxo-chromen-2-yl)-5-methoxyisoindolin-1-one] yielded an IC50 of 4.78 µM.

`COc1ccc(CNc2oc3c(Cl)cccc3c(=O)c2I)cc1` [Example 42, 8-chloro-3-iodo-2-((4-methoxybenzyl)amino)-chromen-4-one] gave an IC50 of 4.34 µM.

`O=c1c(I)c(-n2ccc(OCc3ccccc3)cc2=O)oc2c(Cl)cccc12` [Example 46, 4-benzyloxy-1-(8-chloro-3-iodo-4-oxo-chromen-2-yl)pyridin-2-one] was tested, and the IC50 was 9.66 µM.

For `O=C(O)COc1cc(Cl)ccc1NC(=O)c1cc(=O)c2cccc(Cl)c2o1` [Example 20, 2-(5-chloro-2-(8-chloro-4-oxo-chromene-2-carboxamido)phenoxy)acetic Acid], the IC50 was 50 µM.

Compound `COC(=O)c1cccc(C(=O)N2CC3(C2)CN(c2cc(=O)c4cccc(Cl)c4o2)C3)c1` [Example 63, Methyl 3-[6-(8-chloro-4-oxo-chromen-2-yl)-2,6-diazaspiro[3.3]heptane-2-carbonyl]benzoate] has an IC50 of 31.7 µM.

With `COc1ccc(CN(C)c2cc(=O)c3cccc(Cl)c3o2)cc1` [Example 48, 8-chloro-2-((4-methoxybenzyl)(methyl)amino)-chromen-4-one] the IC50 was 12.1 µM.

`Cc1cc(NC(=O)c2cc(=O)c3cccc(Cl)c3o2)ncc1Br` [Example 23, N-(5-bromo-4-methylpyridin-2-yl)-8-chloro-4-oxo-chromene-2-carboxamide] showed an IC50 of 11.9 µM.

`O=C(Nc1ccc(Cl)cc1OCCOC1CC(C(=O)O)C1)c1cc(=O)c2cccc(Cl)c2o1` (stereo not drawn) [Example 34, 3-(2-(5-chloro-2-(8-chloro-4-oxo-chromene-2-carboxamido)phenoxy)ethoxy)cyclobutane-1-carboxylic Acid] was tested, and the IC50 was 44.6 µM.

With `O=C(c1cc(=O)c2cccc(Cl)c2o1)N1Cc2cccc(Br)c2C1` [Example 31, 2-(4-bromoisoindoline-2-carbonyl)-8-chloro-chromen-4-one] the IC50 was 26.8 µM.

For `O=C(c1cc(=O)c2cccc(Cl)c2o1)N1CCc2cc(Br)ccc2C1` [Example 17, 2-(6-bromo-1,2,3,4-tetrahydroisoquinoline-2-carbonyl)-8-chloro-chromen-4-one], the IC50 was 10.8 µM.

In the case of `O=C(O)C1CC(OCCOc2ccc(CNc3cc(=O)c4cccc(Cl)c4o3)cc2)C1` (stereo not drawn) [Example 60, 3-(2-(4-(((8-chloro-4-oxo-chromen-2-yl)amino)methyl)phenoxy)ethoxy)cyclobutanecarboxylic Acid], the IC50 is reported as 30.8 µM.

Work on `COc1ccc2c(c1)C(=O)N(c1cc(=O)c3cccc(Cl)c3o1)CC2` [Example 65, 2-(8-chloro-4-oxo-chromen-2-yl)-7-methoxy-3,4-dihydroisoquinolin-1-one] yielded an IC50 of 37.6 µM.

Work on `CC1c2ccc(O)cc2CCN1c1cc(=O)c2cccc(Cl)c2o1` (stereo not drawn) [Example 57, 8-chloro-2-(6-hydroxy-1-methyl-3,4-dihydro-1H-isoquinolin-2-yl)chromen-4-one] yielded an IC50 of 20 µM.

`CC(NC(=O)c1cc(=O)c2cccc(Cl)c2o1)c1ccc(Br)cc1` (stereo not drawn) [Example 29, N-(1-(4-bromophenyl)ethyl)-8-chloro-4-oxo-chromene-2-carboxamide] showed an IC50 of 24.9 µM.

For `CN(Cc1ccc(OCCOC2CC(C(=O)O)C2)cc1)c1cc(=O)c2cccc(Cl)c2o1` (stereo not drawn) [Example 56, 3-(2-(4-(((8-chloro-4-oxo-chromen-2-yl)(methyl)amino)methyl)phenoxy)ethoxy)cyclobutanecarboxylic acid], the IC50 was 19.6 µM.

Work on `COC(=O)c1ccc(CNC(=O)c2cc(=O)c3cccc(Cl)c3o2)cc1` [Example 26, Methyl 4-((8-chloro-4-oxo-chromene-2-carboxamido)methyl)benzoate] yielded an IC50 of 20.6 µM.

For `COc1ccc2c(c1)CCN(c1cc(=O)c3cccc(Cl)c3o1)C2=O` [Example 44, 2-(8-chloro-4-oxo-chromen-2-yl)-6-methoxy-3,4-dihydroisoquinolin-1-one], the IC50 was 5.44 µM.

`O=c1cc(N2CCN(c3ccccc3)CC2)oc2c(Cl)cc(F)cc12` [Example 45, 8-chloro-6-fluoro-2-(4-phenylpiperazin-1-yl)-chromen-4-one] gave an IC50 of 8.58 µM.

For `O=c1cc(N2CCC(c3ccccc3)CC2)oc2c(Cl)cc(F)cc12` [Example 49, 8-chloro-6-fluoro-2-(4-phenylpiperidin-1-yl)-chromen-4-one], the IC50 was 12.4 µM.
